Tests used:
Test in all cases: relative viability (nuclei count vs DMSO), 5 days (fraction); higher = more cells survive
BMX-IN-1 + Navitoclax = compound: C=CC(=O)Nc1cc(-n2c(=O)ccc3cnc4ccc(-c5ccc(NS(C)(=O)=O)cc5)cc4c32)ccc1C [BMX-IN-1] + CC1(C)CCC(c2ccc(Cl)cc2)=C(CN2CCN(c3ccc(C(=O)NS(=O)(=O)c4ccc(N[C@H](CCN5CCOCC5)CSc5ccccc5)c(S(=O)(=O)C(F)(F)F)c4)cc3)CC2)C1 [Navitoclax] (partner 0.5 µM)
Summary of the method: (§1)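 Lung cancer cell lines, seeded in 1536-well plates, were treated the following day by pin tool with a single drug or with five library-drug doses (not always all listed) in √10 steps on top of a fixed anchor-drug dose. Cells were fixed and nuclei stained in one step after 5 days, and nuclei were counted. Relative viability is the nuclei count for treated wells divided by that for vehicle wells, reported as medians of duplicate plates.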

BMX-IN-1 + Luminespib = compound: C=CC(=O)Nc1cc(-n2c(=O)ccc3cnc4ccc(-c5ccc(NS(C)(=O)=O)cc5)cc4c32)ccc1C [BMX-IN-1] + CCNC(=O)c1noc(-c2cc(C(C)C)c(O)cc2O)c1-c1ccc(CN2CCOCC2)cc1 [Luminespib] (partner 0.01 µM)
Summary of the method: as §1

PAC-1 + Navitoclax = compound: C=CCc1cccc(/C=N/NC(=O)CN2CCN(Cc3ccccc3)CC2)c1O [PAC-1] + CC1(C)CCC(c2ccc(Cl)cc2)=C(CN2CCN(c3ccc(C(=O)NS(=O)(=O)c4ccc(N[C@H](CCN5CCOCC5)CSc5ccccc5)c(S(=O)(=O)C(F)(F)F)c4)cc3)CC2)C1 [Navitoclax] (partner 0.5 µM)
Summary of the method: as §1

PAC-1 + Tozasertib = compound: C=CCc1cccc(/C=N/NC(=O)CN2CCN(Cc3ccccc3)CC2)c1O [PAC-1] + Cc1cc(Nc2cc(N3CCN(C)CC3)nc(Sc3ccc(NC(=O)C4CC4)cc3)n2)n[nH]1 [Tozasertib] (partner 0.1 µM)
Summary of the method: as §1

PAC-1 + Vorinostat = compound: C=CCc1cccc(/C=N/NC(=O)CN2CCN(Cc3ccccc3)CC2)c1O [PAC-1] + O=C(CCCCCCC(=O)Nc1ccccc1)NO [Vorinostat] (partner 1 µM)
Summary of the method: as §1

SK-MES-1
relative viability (BMX-IN-1 + Navitoclax; first compound 0.02 µM): 1.45
relative viability (BMX-IN-1 + Navitoclax; first compound 0.2 µM): 1.45
relative viability (BMX-IN-1 + Navitoclax; first compound 0.6325 µM): 1.23
relative viability (BMX-IN-1 + Navitoclax; first compound 2 µM): 1.1
relative viability (BMX-IN-1 + Luminespib; first compound 0.02 µM): 0.831
relative viability (BMX-IN-1 + Luminespib; first compound 0.2 µM): 0.879
relative viability (BMX-IN-1 + Luminespib; first compound 0.6325 µM): 0.835
relative viability (BMX-IN-1 + Luminespib; first compound 2 µM): 0.921
relative viability (PAC-1 + Navitoclax; first compound 0.02 µM): 1.09
relative viability (PAC-1 + Navitoclax; first compound 0.06325 µM): 1.3
relative viability (PAC-1 + Navitoclax; first compound 0.2 µM): 1.19
relative viability (PAC-1 + Navitoclax; first compound 2 µM): 1.21
relative viability (PAC-1 + Tozasertib; first compound 0.02 µM): 0.9
relative viability (PAC-1 + Tozasertib; first compound 0.06325 µM): 0.916
relative viability (PAC-1 + Tozasertib; first compound 0.2 µM): 0.892
relative viability (PAC-1 + Tozasertib; first compound 2 µM): 0.916
relative viability (PAC-1 + Vorinostat; first compound 0.02 µM): 1.18
relative viability (PAC-1 + Vorinostat; first compound 0.06325 µM): 1.09
relative viability (PAC-1 + Vorinostat; first compound 0.2 µM): 1.02
relative viability (PAC-1 + Vorinostat; first compound 2 µM): 1.17
